# Reference: patent publication US20150183743A1, “COMPOUND AND USE OF COMPOUND TO PREPARE A RADIOLABELLED COMPOUND” (STICHTING VU-VUMC, priority 2012, published 2015)
# Where a name gives a salt, the structure may show the parent alone.
# Key:
# [1] = biological target: T1, ifenprodil binding site of NR2B subunit containing NMDA receptors (Rattus norvegicus, UniProt P35439+Q00960); assay: Competition binding assay against [3H]ifenprodil on rat forebrain membranes; conditions: displacement of 5 nM [3H]ifenprodil; mean±SEM of 2-6 determinations in triplicate
# T1 construct: 400 μl of the membrane suspension, containing a total amount of 2.5 mg original wet weight of tissue; from tissue; host or cells: rat forebrain membranes
# T1 sequence (Q00960 27-1482, other chains not shown): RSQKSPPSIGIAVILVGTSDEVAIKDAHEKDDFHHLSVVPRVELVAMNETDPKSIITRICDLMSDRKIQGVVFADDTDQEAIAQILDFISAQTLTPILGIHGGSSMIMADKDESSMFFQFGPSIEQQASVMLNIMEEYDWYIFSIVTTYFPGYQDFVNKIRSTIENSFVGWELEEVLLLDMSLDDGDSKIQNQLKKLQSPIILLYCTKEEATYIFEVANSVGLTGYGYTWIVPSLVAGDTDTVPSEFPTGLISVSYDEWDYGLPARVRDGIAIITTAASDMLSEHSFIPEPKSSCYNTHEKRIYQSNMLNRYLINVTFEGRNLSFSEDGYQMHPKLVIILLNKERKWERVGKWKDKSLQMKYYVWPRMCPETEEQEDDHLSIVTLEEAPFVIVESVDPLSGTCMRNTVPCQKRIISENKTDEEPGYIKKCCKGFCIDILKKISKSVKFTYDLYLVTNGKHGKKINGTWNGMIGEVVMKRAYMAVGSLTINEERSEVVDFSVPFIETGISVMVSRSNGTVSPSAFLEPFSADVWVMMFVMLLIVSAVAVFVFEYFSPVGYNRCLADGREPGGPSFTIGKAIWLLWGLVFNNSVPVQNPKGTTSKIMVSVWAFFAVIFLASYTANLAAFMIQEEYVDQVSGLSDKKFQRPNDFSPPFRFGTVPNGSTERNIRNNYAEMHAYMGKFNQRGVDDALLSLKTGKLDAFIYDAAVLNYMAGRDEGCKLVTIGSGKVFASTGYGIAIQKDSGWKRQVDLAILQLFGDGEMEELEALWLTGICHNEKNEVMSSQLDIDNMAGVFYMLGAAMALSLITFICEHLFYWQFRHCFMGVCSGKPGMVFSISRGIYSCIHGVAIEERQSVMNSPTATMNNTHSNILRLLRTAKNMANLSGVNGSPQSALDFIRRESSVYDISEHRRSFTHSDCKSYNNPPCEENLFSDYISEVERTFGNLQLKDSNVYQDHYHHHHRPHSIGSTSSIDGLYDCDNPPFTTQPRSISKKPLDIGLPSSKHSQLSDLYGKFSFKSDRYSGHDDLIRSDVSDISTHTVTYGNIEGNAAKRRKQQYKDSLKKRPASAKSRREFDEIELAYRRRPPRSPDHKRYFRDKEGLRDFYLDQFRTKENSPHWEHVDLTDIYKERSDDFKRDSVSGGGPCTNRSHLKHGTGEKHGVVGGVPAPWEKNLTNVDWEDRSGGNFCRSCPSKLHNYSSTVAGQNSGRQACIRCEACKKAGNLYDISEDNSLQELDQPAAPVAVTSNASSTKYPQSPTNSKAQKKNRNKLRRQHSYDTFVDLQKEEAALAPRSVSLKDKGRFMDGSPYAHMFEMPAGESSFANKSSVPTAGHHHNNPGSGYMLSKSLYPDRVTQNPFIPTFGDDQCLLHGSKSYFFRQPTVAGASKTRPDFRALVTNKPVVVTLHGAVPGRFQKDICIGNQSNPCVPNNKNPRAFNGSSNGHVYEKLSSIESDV
# Protocol: Male Wistar rats (180-200 g) were killed by decapitation. The forebrains were rapidly removed and homogenized using a DUALL tissue homogenizer (10 strokes, 2000 rpm), in a 10-fold excess (v/w) of ice-cold 0.25 M sucrose. The nuclei and cell debris were removed by centrifugation (10 min×400×g), in a Beckman refrigerated ultracentrifuge (rotor 60Ti). The resulting pellet was rehomogenized in 5 vol 0.25 sucrose and recentrifuged. The combined supernatants were diluted in Tris-acetate buffer (50 mM, pH 7.4) to a final dilution of 40 v/w, and centrifuged for 30 min×200,000×g, in order to obtain membranes from the cell surface, mitochondrial, and microsomal fractions. The pellet was resuspended in 20 volumes of Tris-HCl+0.01% Triton buffer (pH 7.4), kept at 37° C. for 10 min, and recentrifuged. The final pellet was suspended in Tris-HCl buffer (dilution 5, pH 7.4), and stored at −80° C. in 5 ml aliquots. On the day of each experiment, membranes were thawed to room temperature and washed twice by centrifugation (30 min×200,000×g). After the final centrifugation, pellets were suspended in 80 volumes (v/w) of 50 mM Tris-HCl buffer (pH 7.4).
# Competition binding experiments were carried out on ice, in a final volume of 500 μl assay buffer (50 mM Tris-HCl, pH 7.4), containing 5 μM GBR 12909 to block […] binding. The incubation mixture was composed of 400 μl of the membrane suspension, containing a total amount of 2.5 mg original wet weight of tissue, 50 μl of [^3H]ifenprodil, and 5 μl of unlabelled drug solution (final DMSO concentration: 1%). Nonspecific binding was determined in the presence of 10 μM Ro 25-6981. Incubations were terminated after 2 hr by filtration through 0.3% PEI-embedded Whatman GF/B filters, using a 48-well Brandel harvester. The filters were washed three times with 3 ml of ice cold Tris-HCl buffer (pH 7.4), and radioactivity was determined by liquid scintillation spectrometry in 5 ml of Optiphase-HiSafe 3, at an efficiency of 40%.
# Ki values were determined by nonlinear regression analysis using the equation: log EC50=log [10̂log Ki*(1+RadioligandNM/HotKdNM)], (GraphPad Software Inc., San Diego, Calif.).
# [2] = Biodistribution of [11C]HC-242 in anaesthetized mice; type: in vivo, B6C3F1/J mice
# Protocol: Animals were anaesthetized with a 1:2:1 mixture of ffm [fentanyl/fluanisone (Hypnorm™; Vetapharma, Leeds, UK), sterile water, midazolam (Dormicum™; Actavis, Harnarfjordur, Iceland)]. The anaesthetic was administered intraperitoneally (11 ml/kg), 5 min prior to radiotracer administration. […] Following the injections, mice were killed by cervical dislocation at 5, 15, 30, or 60 min (n=4/time point). At each time point, blood was obtained by heart punctures and selected organs, including the heart, liver, kidneys, lungs and brain were removed. The brain was further dissected into frontal cortex, olfactory tubercle, striatum, cerebral cortex (bregma 1.70-0.02 mm), entorhinal cortex, hippocampus, hypothalamus, cerebellum, and pons/medulla oblongata. All organs and brain areas were weighed, and recovered radioactivity was determined in a 1282 Compugamma CS (LKB Wallac, Turku, Finland), using 5×10 μl aliquots of the injected formulation as standard. Results are expressed as the differential absorption ratio (DAR): (cpm recovered/g tissue)/(cpm injected/g body weight). Two-way repeated measures ANOVA, followed by Fisher's LSD post-hoc comparisons, was used for analysis of radiotracer uptake in different brain regions (or organs), at different time points.
# [3] = biological target: T2, NR2B site of NMDA receptors (Mus musculus, UniProt P35438+Q01097); assay: In vitro autoradiography of [11C]HC-242 on mouse brain sections (non-specific: 1 μM Ro25-6981); type: binding, B6C3F1/J mice
# T2 construct: from tissue; host or cells: mouse brain (sections in vitro; whole brain in vivo)
# T2 sequence (Q01097 27-1482, other chains not shown): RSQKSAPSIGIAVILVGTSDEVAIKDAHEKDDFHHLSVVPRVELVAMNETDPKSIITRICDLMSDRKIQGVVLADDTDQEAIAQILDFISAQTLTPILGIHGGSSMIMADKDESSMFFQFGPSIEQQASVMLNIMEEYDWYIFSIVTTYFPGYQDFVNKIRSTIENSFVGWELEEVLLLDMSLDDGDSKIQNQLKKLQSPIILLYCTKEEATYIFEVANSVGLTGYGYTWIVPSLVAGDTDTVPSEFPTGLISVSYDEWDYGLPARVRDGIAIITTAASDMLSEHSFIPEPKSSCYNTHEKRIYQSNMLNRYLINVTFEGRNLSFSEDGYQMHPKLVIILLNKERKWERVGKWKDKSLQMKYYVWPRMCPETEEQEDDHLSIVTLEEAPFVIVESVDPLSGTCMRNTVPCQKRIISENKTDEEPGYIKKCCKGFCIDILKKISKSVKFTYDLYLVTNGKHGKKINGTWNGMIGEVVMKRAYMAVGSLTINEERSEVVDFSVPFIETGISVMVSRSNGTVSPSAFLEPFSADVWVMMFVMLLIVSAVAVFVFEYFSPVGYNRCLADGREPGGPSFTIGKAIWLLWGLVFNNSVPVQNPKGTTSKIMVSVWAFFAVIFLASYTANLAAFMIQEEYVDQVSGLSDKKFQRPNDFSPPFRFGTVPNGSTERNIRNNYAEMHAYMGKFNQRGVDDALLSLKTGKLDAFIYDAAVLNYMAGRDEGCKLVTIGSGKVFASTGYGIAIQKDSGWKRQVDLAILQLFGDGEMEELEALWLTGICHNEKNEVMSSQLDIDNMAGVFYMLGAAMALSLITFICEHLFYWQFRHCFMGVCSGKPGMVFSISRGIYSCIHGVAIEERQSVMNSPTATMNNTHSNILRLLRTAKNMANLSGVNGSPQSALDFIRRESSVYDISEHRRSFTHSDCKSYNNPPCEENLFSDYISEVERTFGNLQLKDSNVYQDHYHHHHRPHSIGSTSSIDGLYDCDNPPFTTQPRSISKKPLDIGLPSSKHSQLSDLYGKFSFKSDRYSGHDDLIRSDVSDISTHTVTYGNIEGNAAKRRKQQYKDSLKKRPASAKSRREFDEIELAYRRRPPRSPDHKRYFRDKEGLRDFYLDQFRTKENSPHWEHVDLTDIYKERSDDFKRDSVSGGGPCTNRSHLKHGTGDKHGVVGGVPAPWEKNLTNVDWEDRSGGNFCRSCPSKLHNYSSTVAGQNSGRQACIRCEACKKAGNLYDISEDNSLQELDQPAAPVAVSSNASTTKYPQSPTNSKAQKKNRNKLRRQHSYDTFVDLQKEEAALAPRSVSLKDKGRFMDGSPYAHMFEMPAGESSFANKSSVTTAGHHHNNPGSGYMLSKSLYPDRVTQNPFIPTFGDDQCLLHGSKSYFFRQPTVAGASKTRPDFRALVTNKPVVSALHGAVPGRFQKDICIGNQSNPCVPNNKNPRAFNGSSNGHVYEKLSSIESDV
# Protocol: 20 μm thick coronal brain sections were thawed from −20° C. to room temperature, pre-washed 2×10 min in assay buffer (50 mM Tris-HCl, pH 7.4), and dried. […] To determine non-specific binding, a series of immediately adjacent brain sections was incubated in the same buffer, in the presence of 1 μM Ro25-6981. Incubations were terminated by 1 min washing into ice-cold assay buffer (pH 7.4), followed by a rapid rinse in ice-cold demi water. The sections were then air dried and opposed overnight to Kodak BioMax MR-1 film, which was developed in Kodak D19 developer and fixed with Kodak rapid fixer (Sigma-Aldrich, Zwijndrecht, the Netherlands). […] Specific binding was quantified following the subtraction of […] binding images.
# [4] = biological target: T2, NR2B site of NMDA receptors; assay: Blocking of [11C]HC-242 brain uptake by Ro25-6981 in anaesthetized mice (ex vivo autoradiography); parameters: species or system B6C3F1/J mice; conditions: for mean % change: blocked (Ro25-6981) vs unblocked
# Protocol: 15 min after radiotracer injection, mice were killed by cervical dislocation, and the brains were removed, frozen in liquid nitrogen and processed for quantitative autoradiography. 20 μm coronal brain sections from control and Ro25-6981 treated mice were obtained at −21° C. in a Leica CM3050S cryostat (Leica Microsystems, Rijswijk, the Netherlands), and were immediately opposed to phosphor storage screens. The screens were read in a Storm™ 860 Phosphorimager on the following day, and the images obtained were analyzed using ImageQuant TL 8.1 software (GE Healthcare Europe GmbH, Diegem, Belgium). A series of immediately adjacent brain sections were opposed to Kodak Biomax MR-1 film, which was developed after overnight exposure, to obtain high resolution images. […] Analysis of radiotracer uptake in control and blocked mice across different brain regions was performed using two-way ANOVA.
# [5] = Determination of Log Doct,7.4; type: physicochemical; conditions: 1-octanol / 0.2M phosphate buffer pH 7.4, room temperature, triplicate
# Protocol: The distribution of the radio labelled compounds between 1-octanol and 0.2M phosphate buffer (pH=7.4) was measured in triplicate at room temperature. Briefly, 1 mL of a 20 MBq/mL solution of the radio labelled compound in 0.2M phosphate buffer (pH=7.4) was vigorously mixed with 1 mL of 1-octanol for 1 min at room temperature using a vortex. After a settling period of 30 min, five samples of 100 μL were taken from both layers. For determining recovery, 5 samples of 100 μL were taken from the 20 MBq/mL solution. All samples were counted for radioactivity. The Log Doct,7.4 value was calculated according to Log Doct,7.4=^10Log(Aoct/Abuffer), where Aoct and Abuffer represent the average radioactivity counted of the 5 1-octanol and 5 buffer samples, respectively.
smiles,measurement,setting,value
"Oc1cc(F)ccc1-c1cncc(CNC2CCCC2)c1 [Example 5, 2-(5-((cyclopentylamino)methyl)pyridin-3-yl)-5-fluorophenol]",Ki,[1],1300 ± 600 nM
"FCOc1cc(F)ccc1-c1cncc(CNC2CCCC2)c1 [Example 6, N-((5-(4-fluoro-2-(fluoromethoxy)phenyl)pyridin-3-yl)methyl)cyclopentanamine dihydrochloride]",Ki,[1],15.4 ± 1.3 nM
"COc1cc(F)ccc1-c1cccc(CNCC2CC2)c1 [Example 4, 1-cyclopropyl-N-((4′-fluoro-2′-methoxy-[1,1′-biphenyl]-3-yl)methyl)methanamine hydrochloride]",Ki,[1],67.7 ± 8.1 nM
"Fc1ccc(-c2cncc(CNC3CCCC3)c2)cc1 [Example 10, N-((5-(4-fluorophenyl)pyridin-3-yl)methyl)cyclopentanamine dihydrochloride]",Ki,[1],3.3 ± 1.9 nM
"[11CH3]Oc1cc(F)ccc1-c1cncc(CNC2CCCC2)c1 [[^11C]HC-242, N-((5-(4-fluoro-2-^11C-methoxyphenyl)pyridin-3-yl)methyl)cyclopentanamine]",DAR,"[2]; blood, 5 min",0.04±0.01
same,DAR,"[2]; cerebellum, 15 min",0.14±0.01
same,DAR,"[2]; cerebral cortex, 15 min",0.25±0.03
same,DAR,"[2]; entorhinal cortex, 15 min",0.62±0.22
same,DAR,"[2]; frontal cortex, 15 min",0.26±0.02
same,DAR,"[2]; heart, 5 min",0.19±0.04
same,DAR,"[2]; hippocampus, 15 min",0.33±0.03
same,DAR,"[2]; liver, 5 min",0.15±0.05
same,DAR,"[2]; pons/medulla oblongata, 15 min",0.14±0.02
same,DAR,"[2]; striatum, 15 min",0.24±0.03
same,mean percentage of specific binding,[3]; across all brain regions analyzed,24.0±3.5%
same,Specific labelling,"[3]; cerebral cortex, hippocampus, olfactory tubercle, striatum",high
same,percentage of specific binding,[3]; olfactory tubercle,39.6±10.4%
same,Specific labelling,[3]; subthalamic brain regions,absent
same,Specific labelling,[3]; thalamus,low
same,percentage of specific binding,[3]; thalamus,3.3±2.1%
same,mean % change,"[4]; Experiment No 1, [11C]HC-242 23.7 μM at t0",−22.5%
same,mean % change,"[4]; Experiment No 2, [11C]HC-242 2.6 μM at t0",−21.9%
same,mean % change,"[4]; Experiment No 3, [11C]HC-242 14.6 μM at t0",33.3%
same,mean decrease in radioactivity uptake induced by Ro25-6981,"[4]; Ro25-6981 10.0 mg/kg i.p. pretreatment, across all brain regions, pairs showing decrease",22.3±1.9%
same,mean increase in radioactivity uptake induced by Ro25-6981,"[4]; Ro25-6981 10.0 mg/kg i.p. pretreatment, across all brain regions, pairs showing increase",29.4±4.2%
same,logD,[5],2.14 ± 0.02
"Fc1ccc(-c2cncc(CNCC3CC3)c2)cc1 [Example 12, 1-cyclopropyl-N-((5-(4-fluorophenyl)pyridin-3-yl)methyl)methanamine dihydrochloride]",Ki,[1],2.9 ± 0.3 nM
"Fc1ccc(-c2cccc(CNC3CCCC3)c2)cc1 [Example 11, N-((4′-fluoro-[1,1′-biphenyl]-3-yl)methyl)cyclopentanamine hydrochloride]",Ki,[1],13.1 ± 1.8 nM
"FCCOc1cc(F)ccc1-c1cncc(CNC2CCCC2)c1 [Example 7, N-((5-(4-fluoro-2-(2-fluoroethoxyl)phenyl)pyridin-3-yl)methyl)cyclopentanamine dihydrochloride]",Ki,[1],156 ± 21.8 nM
"COc1cc(F)ccc1-c1cncc(CNCC2CC2)c1 [Example 2, 1-cyclopropyl-N-((5-(4-fluoro-2-methoxyphenyl)pyridin-3-yl)methyl)methanamine dihydrochloride]",Ki,[1],8.7 ± 1.2 nM
